# Source: ChEMBL document CHEMBL1201862, “PubChem BioAssay data set” (2004)
#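 48-hour exposure; five concentrations; linearly interpolated endpoints. GI50 is the concentration that inhibits growth by half.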 Activity calls are given as the source filed them. No stated cut-off is given here; in the data, active = GI50 up to about 1.1 µM and inactive = higher.
# How the values were obtained:
# Assay in all cases: NCI anticancer screen, dose series, 48 h
# [1] = system: SF-539
# [2] = system: A498
# [3] = system: Malme-3M
# [4] = system: HOP-18
# [5] = system: 786-0
# [6] = system: HCC 2998
# [7] = system: HCT-15
# [8] = system: EKVX
# [9] = system: M19-MEL
# [10] = system: CCRF-CEM
# [11] = system: UACC-257
# [12] = system: M14
# [13] = system: HOP-62
# [14] = system: HL-60
# [15] = system: SF-295
# [16] = system: SF-268
# [17] = system: SK-MEL-5
# [18] = system: RXF 393
# [19] = system: SK-MEL-2
# [20] = system: OVCAR-4
# [21] = system: UACC-62
# [22] = system: NCI-H226
# [23] = system: A549
# [24] = system: SN12C
# [25] = system: DMS-114
# [26] = system: OVCAR-5
# [27] = system: TK-10
# [28] = system: UO-31
# [29] = system: U-251
# [30] = system: ACHN
# [31] = system: HT-29
# [32] = system: SNB-78
# [33] = system: HOP-92
# [34] = system: NCI-H23
# [35] = system: HCT-116
# [36] = system: OVCAR-8
# [37] = system: DMS-273
# [38] = system: OVCAR-3
# [39] = system: DLD-1
# [40] = system: RPMI-8226
# [41] = system: SW-620
# [42] = system: SK-MEL-28
# [43] = system: COLO 205
# [44] = system: CAKI-1
# [45] = system: LOX IMVI
# [46] = system: MOLT-4
# [47] = system: IGROV-1
# [48] = system: SNB-75
# [49] = system: SK-OV-3
# [50] = system: K562
# [51] = system: NCI-H460
# [52] = system: SNB-19
# [53] = system: KM12
# [54] = system: KM-20L2
# [55] = system: LXFL 529
# [56] = system: SR
# [57] = system: NCI-H522
structure (smiles),measurement,setting,value
COc1ccccc1NS(=O)(=O)c1cc(C(C)(C)C)ccc1OCCOc1ccc(C(C)(C)C)cc1S(=O)(=O)Nc1ccccc1OC,GI50,[1],> 100 µM (inactive)
same,GI50,[2],> 100 µM (inactive)
same,GI50,[3],> 100 µM (inactive)
same,GI50,[4],> 100 µM (inactive)
same,GI50,[5],> 100 µM (inactive)
same,GI50,[6],> 100 µM (inactive)
same,GI50,[7],> 100 µM
same,GI50,[8],> 100 µM (inactive)
same,GI50,[9],> 100 µM (inactive)
same,GI50,[10],> 100 µM (inactive)
same,GI50,[11],> 100 µM (inactive)
same,GI50,[12],> 100 µM (inactive)
same,GI50,[13],> 100 µM (inactive)
same,GI50,[14],> 100 µM (inactive)
same,GI50,[15],> 100 µM (inactive)
same,GI50,[16],> 100 µM (inactive)
same,GI50,[17],> 100 µM (inactive)
same,GI50,[18],> 100 µM (inactive)
same,GI50,[19],> 100 µM (inactive)
same,GI50,[20],> 100 µM (inactive)
same,GI50,[21],> 100 µM (inactive)
same,GI50,[22],> 100 µM (inactive)
same,GI50,[23],> 100 µM (inactive)
same,GI50,[24],> 100 µM (inactive)
same,GI50,[25],> 100 µM (inactive)
same,GI50,[26],> 100 µM (inactive)
same,GI50,[27],> 100 µM (inactive)
same,GI50,[28],> 100 µM (inactive)
same,GI50,[29],> 100 µM (inactive)
same,GI50,[30],> 100 µM (inactive)
same,GI50,[31],> 100 µM (inactive)
same,GI50,[32],> 100 µM (inactive)
same,GI50,[33],> 100 µM (inactive)
same,GI50,[34],> 100 µM (inactive)
same,GI50,[35],> 100 µM (inactive)
same,GI50,[36],> 100 µM (inactive)
same,GI50,[37],> 100 µM (inactive)
same,GI50,[38],> 100 µM (inactive)
same,GI50,[39],> 100 µM (inactive)
same,GI50,[40],> 100 µM (inactive)
same,GI50,[41],> 100 µM (inactive)
same,GI50,[42],> 100 µM (inactive)
same,GI50,[43],> 100 µM (inactive)
same,GI50,[44],> 100 µM (inactive)
same,GI50,[45],> 100 µM (inactive)
same,GI50,[46],> 100 µM (inactive)
same,GI50,[47],> 100 µM (inactive)
same,GI50,[48],> 100 µM (inactive)
same,GI50,[49],> 100 µM (inactive)
same,GI50,[50],> 100 µM (inactive)
same,GI50,[51],> 100 µM (inactive)
same,GI50,[52],> 100 µM (inactive)
same,GI50,[53],45.4 µM (inactive)
O=C(Nc1ccn(CCOC(=O)c2ccccc2)c(=O)n1)c1ccccc1,GI50,[1],> 100 µM (inactive)
same,GI50,[2],> 100 µM (inactive)
same,GI50,[3],> 100 µM (inactive)
same,GI50,[4],> 100 µM (inactive)
same,GI50,[5],> 100 µM (inactive)
same,GI50,[7],> 100 µM
same,GI50,[8],> 100 µM (inactive)
same,GI50,[54],> 100 µM (inactive)
same,GI50,[9],> 100 µM (inactive)
same,GI50,[10],> 100 µM (inactive)
same,GI50,[11],> 100 µM (inactive)
same,GI50,[12],> 100 µM (inactive)
same,GI50,[13],> 100 µM (inactive)
same,GI50,[14],> 100 µM (inactive)
same,GI50,[15],> 100 µM (inactive)
same,GI50,[16],> 100 µM (inactive)
same,GI50,[17],> 100 µM (inactive)
same,GI50,[18],> 100 µM (inactive)
same,GI50,[55],> 100 µM (inactive)
same,GI50,[19],> 100 µM (inactive)
same,GI50,[20],> 100 µM (inactive)
same,GI50,[21],> 100 µM (inactive)
same,GI50,[22],> 100 µM (inactive)
same,GI50,[23],> 100 µM (inactive)
same,GI50,[24],> 100 µM (inactive)
same,GI50,[25],> 100 µM (inactive)
same,GI50,[26],> 100 µM (inactive)
same,GI50,[27],> 100 µM (inactive)
same,GI50,[28],> 100 µM (inactive)
same,GI50,[29],> 100 µM (inactive)
same,GI50,[30],> 100 µM (inactive)
same,GI50,[31],> 100 µM (inactive)
same,GI50,[32],> 100 µM (inactive)
same,GI50,[56],> 100 µM (inactive)
same,GI50,[33],> 100 µM (inactive)
same,GI50,[35],> 100 µM (inactive)
same,GI50,[36],> 100 µM (inactive)
same,GI50,[37],> 100 µM (inactive)
same,GI50,[38],> 100 µM (inactive)
same,GI50,[40],> 100 µM (inactive)
same,GI50,[41],> 100 µM (inactive)
same,GI50,[42],> 100 µM (inactive)
same,GI50,[43],> 100 µM (inactive)
same,GI50,[44],> 100 µM (inactive)
same,GI50,[45],> 100 µM (inactive)
same,GI50,[47],> 100 µM (inactive)
same,GI50,[48],> 100 µM (inactive)
same,GI50,[49],> 100 µM (inactive)
same,GI50,[50],> 100 µM (inactive)
same,GI50,[57],> 100 µM (inactive)
same,GI50,[51],> 100 µM (inactive)
same,GI50,[53],> 100 µM (inactive)
CC[n+]1c(-c2ccccc2)c2cc(N)ccc2c2ccc(N)cc21,GI50,[1],1.48 µM (inactive)
same,GI50,[3],2.24 µM (inactive)
same,GI50,[4],3.59 µM (inactive)
same,GI50,[6],2.67 µM (inactive)
same,GI50,[54],3.91 µM (inactive)
same,GI50,[9],1.88 µM (inactive)
same,GI50,[11],2.65 µM (inactive)
same,GI50,[14],4.3 µM (inactive)
same,GI50,[15],3 µM (inactive)
same,GI50,[55],0.668 µM (active)
same,GI50,[20],6.68 µM (inactive)
same,GI50,[21],1.52 µM (inactive)
same,GI50,[23],9.57 µM (inactive)
same,GI50,[24],2.51 µM (inactive)
same,GI50,[25],1.29 µM (inactive)
same,GI50,[26],29.6 µM (inactive)
same,GI50,[30],22.1 µM (inactive)
same,GI50,[34],1.31 µM (inactive)
same,GI50,[35],2.79 µM (inactive)
same,GI50,[37],0.481 µM (active)
same,GI50,[38],3.06 µM (inactive)
same,GI50,[41],2.3 µM (inactive)
same,GI50,[43],2.12 µM (inactive)
same,GI50,[44],11.8 µM (inactive)
same,GI50,[46],1.64 µM (inactive)
same,GI50,[47],1.42 µM (inactive)
same,GI50,[50],2.35 µM (inactive)
same,GI50,[51],3.3 µM (inactive)
same,GI50,[53],2.95 µM (inactive)
